Results: patent publication US9345694B2, “Compounds for enhancing arginase activity and methods of using same” (Cornell Research Foundation, Inc., priority 2006, dated 2016)

Experiments:
[1] = test system: myelin-associated glycoprotein (MAG) inhibition in P7 rat cerebellar neurons; assay: MAG inhibition analysis, neurite outgrowth of P7 rat cerebellar neurons on MAG-overexpressing CHO cells, post-treatment; format: cell-based; conditions: 10 nM and 40 nM, 24 h in culture, CHO-MAG vs control CHO cells
Description: Compounds were tested for their ability to overcome myelin-associated glycoprotein (MAG) inhibition in P7 rat cerebellar neurons.
In experiments performed in the Roman Giger laboratory at the University of Rochester School of Medicine and Dentistry, twelve compounds were tested, using the materials and methods described by Venkatesh, et al., J Neurosci.
The twelve compounds were tested in two different dilutions (10 nM and 40 nM final concentration).
MAG-overexpressing CHO cells and control CHO feeder layers were used in the assay. All experiments were done with Percoll purified P7 rat cerebellar neurons. The twelve compounds were tested in a “post-treatment” manner. Post-treatment refers to administering the compounds after the neurons were plated.
After 24 h in culture, cells were fixed and stained with TuJ1 (cells with neurites longer than 1 cell body diameter were quantified). Untreated cells (first column of FIGS. 11 and 12) and DMSO only (second column of FIGS. 11 and 12) were used as a negative controls. RHO-kinase inhibitor Y27632 (15 microM) (third column of FIGS. 11 and 12) was used as a positive control. All experiments have been repeated 3-5 times independently.
In FIGS. 11 and 12, there are two bars for each compound tested.

[2] = test system: Arginase I protein; assay: Western blotting and immunostaining for Arginase I protein in treated neurons; format: cell-based, rat; conditions: neurons treated at 20 μM for 18 hours
Description: FIG. 15. Western blot and immunostaining results for arginase I protein. Neurons were treated with, daidzein (20 μM), methoxyvone (5 μM) or lanzoprazole (20 μM) for 18 hours and were then lysed and subjected to gel electrophoresis, followed by western blotting and immunostaining for Arginase I protein. As a positive control, neurons were treated with 1 mM db cAMP.
In a second experiment, the twelve compounds were tested for their ability to upregulate arginase I protein. Neurons were treated with, daidzein (20 μM), methoxyvone (5 μM) or lanzoprazole (20 μM) for 18 hours and were then lysed and subjected to gel electrophoresis, followed by western blotting and immunostaining for Arginase I protein. As a positive control, neurons were treated with 1 mM db cAMP (FIG. 15). Db-cAMP was previously shown to increased Arginase I protein 3-fold as described by Cai, et a., Neuron. 2002 Aug. 15; 35(4):711-9.

[3] = test system: myelin-associated glycoprotein (MAG) inhibition in p5 rat cerebellar neurons; assay: MAG inhibition analysis, neurite outgrowth of p5 rat cerebellar neurons on MAG-expressing CHO cells, direct addition or priming; format: cell-based; conditions: priming overnight at 20 μM, then plated on MAG-expressing CHO cells
Description: Compounds were tested for their ability to overcome myelin-associated glycoprotein (MAG) inhibition in primary rat neurons. […] In a first experiment, the twelve compounds were tested for their ability to overcome inhibition by MAG in culture. The compounds were tested for their ability to inhibit neurite outgrowth of MAG-expressing CHO cells. Cerebellar neurons were cultured on MAG-expressing CHO cells and neurite length is compared to neurons growing on control CHO cells, not expressing MAG. The cells were assessed for their ability to overcome MAG inhibition when added directly to the cultures at a range of concentrations from 2-20 μM. Neurons were plated at a density of about 10,000 neurons per well of an 8-well culture dish containing a monolayer of either MAG-expressing or control CHO cells. The co-cultures were, incubated for 16-18 h and then immunostained for βIII tubulin. Neurite outgrowth was quantified as previously described (Mukhopadhyay et al., 1994). […] At least 400 neurons were measured in each assay and the experiment was carried out at least twice.

[4] = test system: Arginase I protein; conditions: Cai et al., cited from earlier work

With `CC(=O)Nc1ccc(O)cc1` [Acetaminophen, reference compound] as the molecule, how does the “effect on releasing MAG inhibition” value [1] read?
The value was “no effect”.

Which “effect on releasing MAG inhibition” value [1] does the source give for `COc1ccc(C[C@H]2NC[C@H](O)[C@H]2OC(C)=O)cc1` [Anisomycin, reference compound] here?
Its value is “most promising”.

Which “effect on releasing MAG inhibition” value [1] does the source give for `O=C(/C=C/c1ccc(O)c(O)c1)OCCc1ccccc1` [CAPE, Phenethyl caffeate] here?
Its value is “no effect”.

For `O=c1c(-c2ccc(O)cc2)coc2cc(O)ccc12` [Daidzein], which “Arginase I protein level” value [2] is on record?
Its value is “up-regulated”.

And the “ability to overcome inhibition by MAG (neurite outgrowth)” value [3]?
The value was “overcome inhibition by MAG completely”.

What about the “effect on releasing MAG inhibition” value [1] of the same molecule?
Its value is “no effect”.

Which results are given for `CCCC(=O)Nc1ncnc2c1ncn2[C@@H]1O[C@@H]2COP(=O)(O)O[C@H]2[C@H]1OC(=O)CCC` [Db-cAMP]?
increase of Arginase I protein ([4]; previously shown, Neuron 2002): 3 fold; Arginase I up-regulation ([4]; shown previously, 2002): up-regulated

For `COc1ccc2c(c1)OCc1c-2oc2cc(OC)ccc12` [Dehydrovariabilin], which “effect on releasing MAG inhibition” value [1] is on record?
The value was “most promising”.

Which “effect on releasing MAG inhibition” value [1] does the source give for `COc1cc(OC)c2c(=O)c(-c3ccc4c(c3)OCO4)coc2c1` [Derrustone] here?
The value was “no effect”.

Which “effect on releasing MAG inhibition” value [1] does the source give for `COC(=O)Nc1nc2ccc(Sc3ccccc3)cc2[nH]1` [Fenbendazole, reference compound] here?
Its value is “most promising”.

What does the source list for `Cc1c(OCC(F)(F)F)ccnc1C[S+]([O-])c1nc2ccccc2[nH]1` (stereo not shown) [Lanzoprazole, Lansoprazole, reference compound]?
Arginase I protein level [2]: up-regulated; ability to overcome inhibition by MAG (neurite outgrowth) [3]: overcome inhibition by MAG completely

With `Oc1cc(O)cc(/C=C/c2ccccc2)c1` [Pinosylvin] as the molecule, how does the “effect on releasing MAG inhibition” value [1] read?
The value was “most promising”.

For `COc1ccc(/C=C/c2cc(O)cc(O)c2)cc1` [Resveratol 4-methyl ether], which “effect on releasing MAG inhibition” value [1] is on record?
The value was “no effect”.

Which “effect on releasing MAG inhibition” value [1] does the source give for `CC(=O)Oc1cc(OC(C)=O)c2c(c1)O[C@H](c1ccc(OC(C)=O)c(OC(C)=O)c1)[C@H](OC(C)=O)C2` [epicatechin pentaacetate, Epicatechin pentaacetate] here?
The value was “no effect”.
